# Results: PMC10044120, “Potent and selective covalent inhibition of the papain-like protease from SARS-CoV-2” (Nature Communications, 2023)
# Values joined by “and” are separate entries in the source; they are usually repeats but may differ in a detail not shown here. Equal values may be shown once. Read-outs that look alike come from different tables or passages of the source.
# Assays:
# [1] = test system: SARS-CoV-2 isolate USA-WA1/2020; experiment: microbe, parasite or virus in culture; conditions: for inhibition at 2.08 µM: Severe acute respiratory syndrome coronavirus 2, Vero C1008, read-out: cytopathic effect, % cell viability, [inhibitor] 2.08 uM
# PLpro from SARS-CoV-2 [2] = molecular target: T1, PLpro from SARS-CoV-2 (Severe acute respiratory syndrome coronavirus 2, UniProt P0DTD1); experiment: biochemical; assay type: biochemical; design: mean (kobs plot, Supplementary Figure 6 II): unit: min^-1
# PLpro from SARS-CoV-2 [3] = molecular target: T1, PLpro from SARS-CoV-2; experiment: biochemical; assay type: biochemical; conditions: for remaining activity at 0.06 µM: inhibitor 0.06 uM; for remaining activity at 0.2 µM: inhibitor 0.20 uM; for IC50: after 30-min incubation
# PLpro = PLpro (Severe acute respiratory syndrome coronavirus 2, UniProt P0DTD1); experiment: Intact protein ESI-MS to assess covalent adduct formation; assay type: binding, SARS-CoV-2; design: unit not given here
# Vero E6 cells = conditions: African green monkey, 48 h
# in vitro = conditions: African green monkey, cytotoxicity, %cell viability
# [4] = test system: SARS-CoV-2 isolate USA-WA1/2020; conditions: read-out: cytopathic effect, % cell viability, duplicate wells
# [5] = Metabolic stability in rat liver S9 fraction; conditions: Sprague-Dawley
# [6] = test system: viral replication in Vero E6 cells; conditions: cited from earlier work
# [7] = Metabolic stability in mouse liver microsomes; conditions: CD-1, mouse
# [8] = Metabolic stability in mouse liver S9 fraction; conditions: CD-1, mouse
# [9] = Metabolic stability in rat liver microsomes; conditions: Sprague-Dawley
# [10] = Metabolic stability in human liver S9 fraction
# [11] = Metabolic stability in human liver microsomes
smiles,measurement,setting,value
"COC(=O)/C=C/C(=O)NNC(=O)CCc1ccc(NC(C)=O)cc1C(=O)N[C@H](C)c1cccc2ccccc12 [Compound 8, methyl-(R,E)-4-(2-(3-(4-acetamido-2-((1-(naphthalen-1-yl)ethyl)carbamoyl)phenyl)propanoyl)hydrazineyl)-4-oxobut-2-enoate]",inhibition at 2.08 µM,[1]; duplicate wells,1.22%
same,inhibition at 8.33 µM,"[1]; Severe acute respiratory syndrome coronavirus 2, Vero C1008, read-out: cytopathic effect, % cell viability, [inhibitor] 8.33 uM, duplicate wells",4.63%
same,kinact/KI,PLpro from SARS-CoV-2 [2],9000 M⁻¹ s⁻¹
same,remaining activity at 0.1 µM,"PLpro from SARS-CoV-2 [2]; 5 min, read-out: PLpro activity after preincubation, inhibitor 0.1 uM, preincubation 5 min",79.5%
same,remaining activity at 0.1 µM,"PLpro from SARS-CoV-2 [2]; 10 min, read-out: PLpro activity after preincubation, inhibitor 0.1 uM, preincubation 10 min",71.5%
same,remaining activity at 0.1 µM,"PLpro from SARS-CoV-2 [2]; 0.5 h, read-out: PLpro activity after preincubation, inhibitor 0.1 uM, preincubation 30 min",66.2%
same,remaining activity at 0.1 µM,"PLpro from SARS-CoV-2 [2]; 1 h, read-out: PLpro activity after preincubation, inhibitor 0.1 uM, preincubation 60 min",64.4%
same,remaining activity at 0.2 µM,"PLpro from SARS-CoV-2 [2]; 1 h, read-out: PLpro activity after preincubation, inhibitor 0.2 uM, preincubation 60 min",12.6%
same,remaining activity at 0.1 µM,"PLpro from SARS-CoV-2 [2]; […], read-out: PLpro activity after preincubation, inhibitor 0.1 uM, preincubation 15 min",66.3%
same,remaining activity at 0.1 µM,"PLpro from SARS-CoV-2 [2]; […], read-out: PLpro activity after preincubation, inhibitor 0.1 uM, preincubation 45 min",72.5%
same,remaining activity at 0.1 µM,"PLpro from SARS-CoV-2 [2]; […], read-out: PLpro activity after preincubation, inhibitor 0.1 uM, preincubation 90 min",44.6%
same,Time dep. (time-dependent inhibition),"PLpro from SARS-CoV-2 [2]; fluorogenic peptide assay, varied preincubation time",Yes
same,"mean (kobs plot, Supplementary Figure 6 II)",PLpro from SARS-CoV-2 [2]; inhibitor 0.10 uM,0.0091
same,"mean (kobs plot, Supplementary Figure 6 II)",PLpro from SARS-CoV-2 [2]; inhibitor 0.20 uM,0.0652
same,remaining activity at 0.06 µM,PLpro from SARS-CoV-2 [3]; 0.5 h,89.5%
same,remaining activity at 0.2 µM,PLpro from SARS-CoV-2 [3]; 0.5 h,57.8%
same,IC50,PLpro from SARS-CoV-2 [3],0.23 µM
same,Measured adduct mass,PLpro,531
same,"cytotoxicity, %cell viability",Vero E6 cells; 2.08 µM,78.830%
same,"cytotoxicity, %cell viability",Vero E6 cells; 8.33 µM,82.620%
same,"cytotoxicity, %cell viability",Vero E6 cells; 16.67 µM,76.260%
same,"cytotoxicity, %cell viability",Vero E6 cells; 33.33 µM,75.370%
same,"viability at 48 h, 2.08 µM",in vitro,83.7%
same,"viability at 48 h, 8.33 µM",in vitro,87.2%
same,"viability at 48 h, 16.67 µM",in vitro,82.6%
same,"viability at 48 h, 33.33 µM",in vitro,75.6%
same,inhibition,"[4]; [inhibitor] 2.08 uM, 2.08 µM",0.9%
same,inhibition,"[4]; [inhibitor] 8.33 uM, 8.33 µM",2.82%
"Cc1ccccc1C(=O)N[C@H](C)c1cccc2ccccc12 [Compound 14, (R)-2-methyl-N-(1-(naphthalen-1-yl)ethyl)benzamide]",half-life,[5],17 min
same,microsomal CLint,[5],138 µL/min/mg
same,EC50,[6],10 µM
same,half-life,[7],16 min
same,microsomal CLint,[7],435 µL/min/mg
same,inhibition at […],"[1]; Severe acute respiratory syndrome coronavirus 2, Vero C1008, read-out: cytopathic effect, % cell viability",7.92% and 10.7%
same,inhibition at 2.08 µM,[1]; duplicate wells,11.3%
same,inhibition at 16.65 µM,"[1]; Severe acute respiratory syndrome coronavirus 2, Vero C1008, read-out: cytopathic effect, % cell viability, [inhibitor] 16.65 uM, duplicate wells",7.05%
same,remaining activity at 0.02 µM,"PLpro from SARS-CoV-2 [3]; 0.5 h, inhibitor 0.02 uM",96.3%
same,remaining activity at 0.06 µM,PLpro from SARS-CoV-2 [3]; 0.5 h,94.2%
same,remaining activity at 0.2 µM,PLpro from SARS-CoV-2 [3]; 0.5 h,103%
same,remaining activity at 2.01 µM,"PLpro from SARS-CoV-2 [3]; 0.5 h, inhibitor 2.01 uM",90.5%
same,remaining activity at 6.34 µM,"PLpro from SARS-CoV-2 [3]; 0.5 h, inhibitor 6.34 uM",77.4%
same,remaining activity at 20 µM,"PLpro from SARS-CoV-2 [3]; 0.5 h, inhibitor 20.00 uM",56.2%
same,remaining activity at 200 µM,"PLpro from SARS-CoV-2 [3]; 0.5 h, inhibitor 200.00 uM",40.8%
same,IC50,PLpro from SARS-CoV-2 [3],100 µM
same,half-life,[8],18 min
same,microsomal CLint,[8],128 µL/min/mg
same,half-life,[9],21 min
same,microsomal CLint,[9],330 µL/min/mg
same,half-life,[10],> 60 min
same,microsomal CLint,[10],< 38.5 µL/min/mg
same,half-life,[11],41 min
same,microsomal CLint,[11],171 µL/min/mg
same,"cytotoxicity, %cell viability",Vero E6 cells; 2.08 µM,96.55%
same,"cytotoxicity, %cell viability",Vero E6 cells; 8.33 µM,99.10%
same,"cytotoxicity, %cell viability",Vero E6 cells; 16.65 µM,92.38%
same,"viability at 48 h, 2.08 µM",in vitro,100%
same,"viability at 48 h, 8.33 µM",in vitro,95.2%
same,"viability at 48 h, 16.65 µM",in vitro,95.7%
same,inhibition,"[4]; [inhibitor] 2.08 uM, 2.08 µM",7.39%
same,inhibition,"[4]; [inhibitor] 16.65 uM, 16.65 µM",5.25%
